Test results from patent publication US20120029187A1, “HALOALKYLSULFONANILIDE DERIVATIVE” (Nissan Chemical Industries, Ltd., priority 2009, published 2012).

Columns and labels:
Type in all cases: in vivo
large crabgrass [1] = assay: Test Example 4: herbicidal effect in foliage treatment; details: dose 3.2 g/a, three weeks after the application
Excerpt: (§1) Test on the Herbicidal Effect in Foliage Treatment
(§2) Sterilized diluvial soil was put in plastic boxes with a length of 21 cm, a width of 13 cm and a depth of 7 cm, and seeds of barnyardgrass, large crabgrass, giant foxtail, wild oat, blackgrass, velvetleaf, common ragweed, redroot pigweed, common lambsquater, posumbu knotweed, common chickweed, corn, soybean, rice, wheat and sugar beet were sown in spots and covered with an about 1.5 cm-thick soil layer. The boxes were placed in a greenhouse at 25 to 30° C. to grow the plants. After 14 days, emulsifiable concentrates containing compounds of the present invention formulated in accordance with Formulation Example 2 were uniformly applied to the foliage at predetermined doses through a small sprayer after diluted with water. Three weeks after the application, the herbicidal effects against various plants were determined on the same evaluation scale as in Test Example 1.
(§3) A: barnyardgrass, B: bulrush, C: ducksalad, D: large crabgrass, E: giant foxtail, F: wild oat, G: water foxtail, H: Italian ryegrass, I: velvetleaf, J: common ragweed, K: redroot pigweed, L: common lambsquater, M: posumbu knotweed, N: common chickweed, O: beadstraw, a: transplanted rice, b: corn, c: soybean, d: direct-seeded rice, e: wheat, f: sugar beet.
(§4) The doses (g/a) represents the amounts in g per 1 are (a) applied after adjustment of concentration adjustment.

giant foxtail [2] = assay: as above; details: dose 3.2 g/a, three weeks after the application
Excerpt: as §1, §2, §3, §4

posumbu knotweed [3] = assay: as above; details: dose 3.2 g/a, three weeks after the application
Excerpt: as §1, §2, §3, §4

Italian ryegrass [4] = assay: as above; details: dose 3.2 g/a, three weeks after the application
Excerpt: as §1, §2, §3, §4

common ragweed [5] = assay: as above; details: dose 3.2 g/a, three weeks after the application
Excerpt: as §1, §2, §3, §4

redroot pigweed [6] = assay: as above; details: dose 3.2 g/a, three weeks after the application
Excerpt: as §1, §2, §3, §4

barnyardgrass [7] = assay: as above; details: dose 3.2 g/a, three weeks after the application
Excerpt: as §1, §2, §3, §4

water foxtail [8] = assay: as above; details: dose 3.2 g/a, three weeks after the application
Excerpt: as §1, §2, §3, §4

common lambsquater [9] = assay: as above; details: dose 3.2 g/a, three weeks after the application
Excerpt: as §1, §2, §3, §4

velvetleaf = assay: as above; details: dose 3.2 g/a, three weeks after the application
Excerpt: as §1, §2, §3, §4

common chickweed [10] = assay: as above; details: dose 3.2 g/a, three weeks after the application
Excerpt: as §1, §2, §3, §4

ducksalad [11] = assay: Test Example 2: herbicidal effects during the vegetation period under submerged conditions; details: treatment during the vegetation period under submerged conditions; dose 2.52 g/a
Method: (§5) Test on the Herbicidal Effects on Weeds During the Vegetation Period Under Submerged Conditions
(§6) Alluvial soil was put in 1/30000-are styrol cups and admixed with water so that it was submerged at a depth of 4 cm. In each cup, seeds of barnyardgrass, bulrush and ducksalad were sown together, and the cups were placed in a greenhouse at 25 to 30° C. to grow the plants. When the barnyardgrass, bulrush and ducksalad reached the 1- or 2-leaf stage, emulsifiable concentrates containing compounds of the present invention formulated in accordance with Formulation Example 2 were applied to the water surfaces at predetermined doses after diluted with water. Three weeks after the application, the herbicidal effects against various plants were determined on the same evaluation scale as in Test Example 1.
as §3, §4

bulrush [12] = assay: as above; details: treatment during the vegetation period under submerged conditions; dose 2.52 g/a
Method: as §5, §6, §3, §4

barnyardgrass [13] = assay: as above; details: treatment during the vegetation period under submerged conditions; dose 2.52 g/a
Method: as §5, §6, §3, §4

transplanted rice = assay: Test Example 1: preemergence treatment under submerged conditions, effect on crop; details: dose 2.52 g/a
Excerpt: (§7) Test on the Herbicidal Effects in Preemergence Treatment on Weeds Under Submerged Conditions
(§8) Alluvial soil was put in 1/30000-are styrol cups and admixed with water so that it was submerged at a depth of 4 cm. In each cup, seeds of barnyardgrass, bulrush and ducksalad were sown together, and rice seedlings at the 2.5-leaf stage were transplanted. On the same day as the seeding, emulsifiable concentrates containing compounds of the present invention formulated in accordance with Formulation Example 2 were applied to the water surfaces at predetermined doses after diluted with water. The cups were placed in a greenhouse at 25 to 30° C. to grow the plants. Three weeks after the application, the herbicidal effects against various plants were determined on the following evaluation scale.
(§9) 5 mortality of 90% or above (nearly complete death)
(§10) 4 mortality of at least 70% and less than 90%
(§11) 3 mortality of at least 40% and less than 70%
(§12) 2 mortality of at least 20% and less than 40%
(§13) 1 mortality of at least 5% and less than 20%
(§14) 0 mortality of less than 5% (almost ineffective)
as §3, §4

large crabgrass [14] = assay: Test Example 3: herbicidal effects in soil treatment; details: dose 3.2 g/a
Excerpt: (§15) Test on the Herbicidal Effects in Soil Treatment
as §2, with “chickweed” for “chickweed,”, “Emulsifiable” for “The boxes were placed in a greenhouse at 25 to 30° C. to grow the plants. After 14 days, emulsifiable”, “soil surfaces” for “foliage”, “dilute” for “diluted”
as §3, §4

giant foxtail [15] = assay: as above; details: dose 3.2 g/a
Excerpt: as §15
as §2, with “chickweed” for “chickweed,”, “Emulsifiable” for “The boxes were placed in a greenhouse at 25 to 30° C. to grow the plants. After 14 days, emulsifiable”, “soil surfaces” for “foliage”, “dilute” for “diluted”
as §3, §4

posumbu knotweed [16] = assay: as above; details: dose 3.2 g/a
Excerpt: as §15
as §2, with “chickweed” for “chickweed,”, “Emulsifiable” for “The boxes were placed in a greenhouse at 25 to 30° C. to grow the plants. After 14 days, emulsifiable”, “soil surfaces” for “foliage”, “dilute” for “diluted”
as §3, §4

Italian ryegrass [17] = assay: as above; details: dose 3.2 g/a
Excerpt: as §15
as §2, with “chickweed” for “chickweed,”, “Emulsifiable” for “The boxes were placed in a greenhouse at 25 to 30° C. to grow the plants. After 14 days, emulsifiable”, “soil surfaces” for “foliage”, “dilute” for “diluted”
as §3, §4

common ragweed [18] = assay: as above; details: dose 3.2 g/a
Excerpt: as §15
as §2, with “chickweed” for “chickweed,”, “Emulsifiable” for “The boxes were placed in a greenhouse at 25 to 30° C. to grow the plants. After 14 days, emulsifiable”, “soil surfaces” for “foliage”, “dilute” for “diluted”
as §3, §4

redroot pigweed [19] = assay: as above; details: dose 3.2 g/a
Excerpt: as §15
as §2, with “chickweed” for “chickweed,”, “Emulsifiable” for “The boxes were placed in a greenhouse at 25 to 30° C. to grow the plants. After 14 days, emulsifiable”, “soil surfaces” for “foliage”, “dilute” for “diluted”
as §3, §4

barnyardgrass [20] = assay: as above; details: dose 3.2 g/a
Excerpt: as §15
as §2, with “chickweed” for “chickweed,”, “Emulsifiable” for “The boxes were placed in a greenhouse at 25 to 30° C. to grow the plants. After 14 days, emulsifiable”, “soil surfaces” for “foliage”, “dilute” for “diluted”
as §3, §4

water foxtail [21] = assay: as above; details: dose 3.2 g/a
Excerpt: as §15
as §2, with “chickweed” for “chickweed,”, “Emulsifiable” for “The boxes were placed in a greenhouse at 25 to 30° C. to grow the plants. After 14 days, emulsifiable”, “soil surfaces” for “foliage”, “dilute” for “diluted”
as §3, §4

common lambsquater [22] = assay: as above; details: dose 3.2 g/a
Excerpt: as §15
as §2, with “chickweed” for “chickweed,”, “Emulsifiable” for “The boxes were placed in a greenhouse at 25 to 30° C. to grow the plants. After 14 days, emulsifiable”, “soil surfaces” for “foliage”, “dilute” for “diluted”
as §3, §4

common chickweed [23] = assay: as above; details: dose 3.2 g/a
Excerpt: as §15
as §2, with “chickweed” for “chickweed,”, “Emulsifiable” for “The boxes were placed in a greenhouse at 25 to 30° C. to grow the plants. After 14 days, emulsifiable”, “soil surfaces” for “foliage”, “dilute” for “diluted”
as §3, §4

ducksalad [24] = assay: Test Example 1: herbicidal effects in preemergence treatment under submerged conditions; details: dose 2.52 g/a
Excerpt: as §7, §8, §9, §10, §11, §12, §13, §14, §3, §4

bulrush [25] = assay: as above; details: dose 2.52 g/a
Excerpt: as §7, §8, §9, §10, §11, §12, §13, §14, §3, §4

barnyardgrass [26] = assay: as above; details: dose 2.52 g/a
Excerpt: as §7, §8, §9, §10, §11, §12, §13, §14, §3, §4

Structure (SMILES): CCOC(=O)N(c1ccccc1CN1COC(C)C(C)C1=O)S(=O)(=O)C(F)(F)F (stereo not shown) [II-71]
- D: large crabgrass, herbicidal effect (large crabgrass [1]): 4 (mortality of at least 70% and less than 90%)
- E: giant foxtail, herbicidal effect (giant foxtail [2]): 4 (mortality of at least 70% and less than 90%)
- M: posumbu knotweed, herbicidal effect (posumbu knotweed [3]): 0 (mortality of less than 5% (almost ineffective))
- H: Italian ryegrass, herbicidal effect (Italian ryegrass [4]): 1 (mortality of at least 5% and less than 20%)
- J: common ragweed, herbicidal effect (common ragweed [5]): 3 (mortality of at least 40% and less than 70%)
- K: redroot pigweed, herbicidal effect (redroot pigweed [6]): 0 (mortality of less than 5% (almost ineffective))
- A: barnyardgrass, herbicidal effect (barnyardgrass [7]): 5 (mortality of 90% or above (nearly complete death))
- G: water foxtail, herbicidal effect (water foxtail [8]): 5 (mortality of 90% or above (nearly complete death))
- L: common lambsquater, herbicidal effect (common lambsquater [9]): 0 (mortality of less than 5% (almost ineffective))
- I: velvetleaf, herbicidal effect (velvetleaf): 5 (mortality of 90% or above (nearly complete death))
- N: common chickweed, herbicidal effect (common chickweed [10]): 4 (mortality of at least 70% and less than 90%)
- C: ducksalad, herbicidal effect (evaluation scale 0-5) (ducksalad [11]): 5 (mortality of 90% or above (nearly complete death))
- B: bulrush, herbicidal effect (evaluation scale 0-5) (bulrush [12]): 5 (mortality of 90% or above (nearly complete death))
- A: barnyardgrass, herbicidal effect (evaluation scale 0-5) (barnyardgrass [13]): 5 (mortality of 90% or above (nearly complete death))
- a: transplanted rice, effect on crop (evaluation scale 0-5) (transplanted rice): 0 (mortality of less than 5% (almost ineffective))
- D: large crabgrass, herbicidal effect (evaluation scale 0-5) (large crabgrass [14]): 5 (mortality of 90% or above (nearly complete death))
- E: giant foxtail, herbicidal effect (evaluation scale 0-5) (giant foxtail [15]): 4 (mortality of at least 70% and less than 90%)
- M: posumbu knotweed, herbicidal effect (evaluation scale 0-5) (posumbu knotweed [16]): 3 (mortality of at least 40% and less than 70%)
- H: Italian ryegrass, herbicidal effect (evaluation scale 0-5) (Italian ryegrass [17]): 2 (mortality of at least 20% and less than 40%)
- J: common ragweed, herbicidal effect (evaluation scale 0-5) (common ragweed [18]): 5 (mortality of 90% or above (nearly complete death))
- K: redroot pigweed, herbicidal effect (evaluation scale 0-5) (redroot pigweed [19]): 5 (mortality of 90% or above (nearly complete death))
- A: barnyardgrass, herbicidal effect (evaluation scale 0-5) (barnyardgrass [20]): 5 (mortality of 90% or above (nearly complete death))
- G: water foxtail, herbicidal effect (evaluation scale 0-5) (water foxtail [21]): 5 (mortality of 90% or above (nearly complete death))
- L: common lambsquater, herbicidal effect (evaluation scale 0-5) (common lambsquater [22]): 0 (mortality of less than 5% (almost ineffective))
- N: common chickweed, herbicidal effect (evaluation scale 0-5) (common chickweed [23]): 3 (mortality of at least 40% and less than 70%)
- C: ducksalad, herbicidal effect (evaluation scale 0-5) (ducksalad [24]): 5 (mortality of 90% or above (nearly complete death))
- B: bulrush, herbicidal effect (evaluation scale 0-5) (bulrush [25]): 5 (mortality of 90% or above (nearly complete death))
- A: barnyardgrass, herbicidal effect (evaluation scale 0-5) (barnyardgrass [26]): 5 (mortality of 90% or above (nearly complete death))
